Results as given in US10413532B2, “Pharmaceutical compositions containing a PDE4 inhibitor and a PI3 delta or dual PI3 delta-gamma kinase inhibitor” (Rhizen Pharmaceuticals SA, priority 2012, dated 2019).

System: neutrophil infiltration
Experiment: Lipopolysaccharide induced pulmonary neutrophilia in female Wistar rats
Type: in vivo
Description: After the quarantine period, fasted animals were randomized and divided into groups depending on their body weights. Test compound was prepared as a suspension in a vehicle consisting of 0.5% methylcellulose in which Tween 80 was used as a suspending agent. Compounds or vehicle were administered by oral gavage in a volume of 10 mL/kg. Animals were anaesthetized with ketamine and LPS solution was administered intratracheally 30 minutes after compound administration at a dose of 1 mg/kg. Six hours after LPS instillation, animals were exsanguinated under anaesthesia, and the trachea was cannulated, and lungs were lavaged with 5-ml aliquots of heparinised PBS (1 unit/ml) four times through the tracheal cannula (total volume 20 ml). Bronchioalveolar (BAL) fluid was stored at 2-8° C. until assayed for total cell and differential leukocyte count. BAL fluid was centrifuged (500×g for 10 min) and the resulting cell pellet was resuspended in 0.5 ml of heparinised saline. The total numbers of white blood cells were determined in BAL fluid or blood using a cell counter and were adjusted to 1×10^6 cell/ml. Differential cell count was calculated manually. One hundred microliters of the cell suspension was centrifuged using cytospin 3 to prepare a cell smear. The cell smear was stained with a blood staining solution for differentiation and slides were microscopically observed to identify eosinophils according to their morphological characteristics. The number of each cell type among 300 white blood cells in the cell smear was determined and expressed as a percentage of total cells. The number of eosinophil in BALF was calculated.
The procedure for LPS induced pulmonary neutrophilia in female Wistar rats as described in Example 1 was performed with compound A1 and roflumilast.

## O=C(Nc1c(Cl)cncc1Cl)c1ccc(OC(F)F)c(OCC2CC2)c1 [Compound A, roflumilast, reference compound]
0.3 mg/kg oral, rat BAL fluid 6 h after LPS
  percent inhibition of neutrophil infiltration: −7.89%
1 mg/kg oral, dose-response study, rat
  percent inhibition of neutrophil infiltration: 43.46%
3 mg/kg oral, rat
  percent inhibition of neutrophil infiltration: 68.02%
10 mg/kg oral, rat
  percent inhibition of neutrophil infiltration: 92.21%
Neutrophil, oral, rat LPS pulmonary neutrophilia, read-out: 50% inhibition (ED50) dose, neutrophil infiltration
  ED50: 1.8 mg/kg
Combination study, alone at 1.8 mg/kg, rat
  inhibition of neutrophil infiltration: 36.18%
